Measured values: patent publication US10258606B2, “Endothelin single nucleotide polymorphisms and methods of predicting β-adrenergic receptor targeting agent efficacy” (The Regents of the University of Colorado, A Body Corporate, priority 2007, dated 2019)

How the values were obtained:
[1] = system: 1040 BEST DNA Bank subjects; details: bucindolol treated subjects carrying the Arg-389 allele of the beta-1-adrenergic receptor (ADRB); cited from earlier work
[2] = system: subjects with idiopathic dilated cardiomyopathy; assay: BEST (Beta-Blocker Evaluation of Survival Trial) DNA substudy: time to event by endothelin gene system genotype, Cox proportional hazards model; assay type: in vivo, human; details: for Event/number, first heart failure hospitalization or death: FIG. 1; for E, number of events / HR associated with each copy of allele A, allele dosage Cox model / HR associated with each copy of allele Asn, allele dosage Cox model: bucindolol arm; for HR associated with each copy of allele A, allele dosage Cox model: G/A (IVS-4); for HR associated with each copy of allele Asn, allele dosage Cox model: Lys198Asn
Excerpt: 309 subjects with idiopathic dilated cardiomyopathy were studied from the Beta-Blocker Evaluation of Survival Trial (BEST) (2001). BEST was a multicenter, randomized, prospective trial of patients with NYHA class III or IV heart failure and an ejection fraction <35% comparing mortality in adults treated with placebo or the non-selective β-blocker bucindolol. The BEST DNA bank, initiated in the study's second year, collected samples from 38% of the original participants. The inventors requested samples from idiopathic dilated cases, rather than the entire cohort, to ensure a more homogenous heart failure population. In particular, the inventors sought to avoid studying […] ischemic forms of heart failure where acquired macrovascular changes in arterial stiffness or tone could potentially mask or override inherent microvascular phenotypes mediated by variation in endothelin genes. Written informed consent was obtained from each participant and all DNA was coded to maintain confidentiality. The genotyping project was approved by the BEST DNA Bank Oversight Committee and by the Colorado Multiple Institutional Review Board
Time to each of two endpoints was examined: all cause death and a combined endpoint comprised of first heart failure hospitalization or all cause death, using the Cox proportional hazards model. Genotype was treated a priori as a continuous variable, consistent with an allele dosage effect. Analyses were conducted using R and SAS. Primary analyses consisted of separate tests of a main genotype effect on time to event for each SNP within each treatment arm: placebo (N=159) and bucindolol (N=150). Secondary analyses, in the combined sample (N=309), consisted of tests of a genotype-treatment pharmacogenetic interaction and of a main genotype effect independent of treatment arm. Secondary analyses, comprised of interaction tests and estimation of within-genotype bucindolol:placebo hazard ratios, were also performed. Ethnicity was not included as a factor in initial Cox models, because of the relatively small sample. However, post-hoc analyses (within ethnic group, and including ethnicity-genotype interactions) were used to explore whether initial results were due to unaccounted for ethnic stratification. Linkage disequilibrium was assessed by taking the R^2 value (squared correlation) of the genotypes (coded as 0, 1 or 2) between two SNPs.
To account for the large number of simultaneous tests, adjusted p-values obtained from a multiple-testing permutation procedure are reported (Westfall and Young, 1993). Based on the actual data set, 5000 random data sets were generated by randomly permuting the time to event data relative to the genotype data, separately for patients on placebo and for patients on bucindolol. […] Adjusted p-values for interaction tests are based on 18 tests (2 outcomes×9 SNPs).
Cox model analysis was also used to examine a variety of more complicated models, and to describe the quantify the effects of bucindolol in terms of bucindolol:placebo hazard ratios, within genotype. Kaplan-Meier plots and log-rank tests were also examined. All p-values were based on two-sided tests. The statistical analysis was performed at the Veterans Affairs Cooperative Studies Program DNA Bank Coordinating Center.

[3] = combined endpoint, Non-Hispanic Blacks
[4] = combined endpoint, Non-Hispanic Whites

CC(C)(Cc1c[nH]c2ccccc12)NCC(O)COc1ccccc1C#N (centres unmarked) [Bucindolol, bucindolol]
all-cause mortality [1]: reduced all-cause mortality | Event/number, first heart failure hospitalization or death ([2]; IVS-4 G/A common homozygotes): 21/84 | Event/number, first heart failure hospitalization or death ([2]; IVS-4 G/A heterozygotes): 21/58 | Event/number, first heart failure hospitalization or death ([2]; IVS-4 G/A rare homozygotes): 7/8 | Event/number, first heart failure hospitalization or death ([2]; Lys198Asn common homozygotes): 22/87 | Event/number, first heart failure hospitalization or death ([2]; Lys198Asn heterozygotes): 20/55 | Event/number, first heart failure hospitalization or death ([2]; Lys198Asn rare homozygotes): 7/8 | E, number of events ([2]; combined endpoint, G/A (IVS-4) analysis, All (N 150)): 49 | E, number of events ([2]; combined endpoint, G/A (IVS-4) analysis, Non-Hispanic Blacks (N 38)): 16 | E, number of events ([2]; combined endpoint, G/A (IVS-4) analysis, Non-Hispanic Whites (N 100)): 27 | HR associated with each copy of allele A, allele dosage Cox model ([2]; combined endpoint, All): 2.2 | HR associated with each copy of allele A, allele dosage Cox model [2, 3]: 1.58 | HR associated with each copy of allele A, allele dosage Cox model [2, 4]: 1.9 | E, number of events ([2]; combined endpoint, Lys198Asn analysis, All (N 150)): 49 | E, number of events ([2]; combined endpoint, Lys198Asn analysis, Non-Hispanic Blacks (N 38)): 16 | E, number of events ([2]; combined endpoint, Lys198Asn analysis, Non-Hispanic Whites (N 100)): 27 | HR associated with each copy of allele Asn, allele dosage Cox model ([2]; combined endpoint, All): 2.0 | HR associated with each copy of allele Asn, allele dosage Cox model [2, 3]: 1.5 | HR associated with each copy of allele Asn, allele dosage Cox model [2, 4]: 1.9 | Hazard ratio for bucindolol versus placebo ([2]; combined endpoint (first heart failure hospitalization or all cause mortality), EDN1 G/A (IVS-4) genotype GG): 0.5 | Hazard ratio for bucindolol versus placebo ([2]; combined endpoint, EDN1 G/A (IVS-4) genotype AA): 3.2 | Hazard ratio for bucindolol versus placebo ([2]; combined endpoint, EDN1 G/A (IVS-4) genotype GA): 1.1 | Hazard ratio for bucindolol versus placebo ([2]; combined endpoint, EDN1 Lys198Asn genotype Asn/Asn): 2.5 | Hazard ratio for bucindolol versus placebo ([2]; combined endpoint, EDN1 Lys198Asn genotype Lys/Asn): 1.1 | Hazard ratio for bucindolol versus placebo ([2]; combined endpoint, EDN1 Lys198Asn genotype Lys/Lys): 0.5 | apparent effect of bucindolol on combined endpoint ([2]; common homozygotes (statistically significant)): beneficial effect | apparent effect of bucindolol on combined endpoint ([2]; heterozygotes): neutral effect | apparent effect of bucindolol on combined endpoint ([2]; rare homozygotes): harmful effect | combined endpoint hazard rate on bucindolol relative to placebo ([2]; the 5.5% of subjects homozygous for the rare complementary haplotype): almost three times greater
